# Publication PMC4786259 (PLoS ONE, 2016)
# System: WT and dopamine transporter knockout (DAT-KO) mice
# Test: Prepulse inhibition in WT and DAT-KO mice
# Details: 2 mg/kg clozapine i.p.
compound,measurement,value
CN1CCN(C2=Nc3cc(Cl)ccc3Nc3ccccc32)CC1 [clozapine],PPI in DAT-KO mice,restored
same,PPI in WT mice,not affected
